Assays:
[1] = system: EPSPS of the resistant R1 population (EPSPS1 and EPSPS2, mixed alleles); details: read-out: I50; raw leaf extract, mixed isozymes and alleles (wild type, P106S, T102I/P106S); stated gain
Description: EPSPS activity in leaf extract, continuous phosphate release (EnzChek) on EPSPS of the resistant R1 population (EPSPS1 and EPSPS2, mixed alleles)

[2] = system: T1, EPSPS of the resistant R2 population (EPSPS1 and EPSPS2); assay: EPSPS activity in leaf extract, continuous phosphate release (EnzChek); format: biochemical, Bidens pilosa; details: raw leaf extract, mixed isozymes; no EPSPS mutation found in this resistant population; read-out: I50
T1 construct: native enzyme in raw leaf extract; isozyme mix unknown

[3] = system: T2, EPSPS of the susceptible (S) population (EPSPS1 and EPSPS2); assay: as above; format: biochemical, Bidens pilosa; details: raw leaf extract, mixed isozymes; 10 min at 360 nm; glyphosate 0-10000 μM; text prints 0.95 μM; read-out: I50
T2 construct: native enzyme in raw leaf extract; both isozymes expressed
Description: EPSPS activity in leaf extract, continuous phosphate release (EnzChek) on EPSPS of the susceptible (S) population (EPSPS1 and EPSPS2)

`O=C(O)CNCP(=O)(O)O` [glyphosate] gave an IC50 [1] of 123 ± 2.1 µM, an IC50 [2] of 8.2 ± 1.1 µM and an IC50 [3] of 0.96 µM.

Reference: PMC5046737, “Target and Non-target Site Mechanisms Developed by Glyphosate-Resistant Hairy beggarticks (Bidens pilosa L.) Populations from Mexico” (Frontiers in Plant Science, 2016)
